Source: patent US8404711B2, “5-HT4 receptor agonist compounds for treatment of cognitive disorders” (priority 2009, dated 2013)
Entries after “also recorded” stand apart in the source; their conditions may differ. Counter-ions that a name gives are not always drawn.

Legend:
[1] = tested on: scopolamine-induced cognitive impairment (rat Morris water maze); test: rat Morris water maze model, scopolamine-induced cognitive impairment; assay type: in vivo; settings: for effect on scopolamine-induced memory impairment: 0.03 mg/kg plus scopolamine 0.5 mg/kg; for effect on ability of rats to learn platform location when administered alone: no scopolamine; for reversal of scopolamine-induced cognitive impairment with coadministered 5-HT4 antagonist: compound 0.1 mg/kg i.p. plus GR125487 1 mg/kg i.p. and scopolamine 0.5 mg/kg
Protocol: Adult, male Sprague-Dawley rats (body weight range 275-400 g) were handled by the investigator for approximately 5 minutes one day prior to each study. […] A clear Perspex® platform was located in a fixed position 1 cm below the surface of the water, and 34 cm from the wall of the tank. Four visual cues (A4-sized pictures of different black and white symbols) were equally spaced on the wall of the tank, just above the water surface. Black curtains were placed around the tank and white noise was generated throughout the test. Each rat was released into the water, facing the tank wall, at a designated starting point (i.e., at the north side of the tank), and allowed 60 seconds to locate the submerged platform after each placement. The escape latency (in seconds) between release of the rat into the water and its locating the platform was recorded automatically by means of a video camera (San Diego Instrument, CA) and tracking software (SMART software, San Diego Instrument, CA). […] The rats were allowed to remain on the platform for 30 seconds to observe the external visual cues and pair them with the relative position of the platform. The rats were then taken off the platform and dried gently with a paper towel before repeating the test three more times (from south, then east and finally west starting positions). After the fourth test, each rat was placed under a heating lamp for 5 minutes before being returned to its home cage. The entire procedure was repeated on days 2 and 3. Over the three days of testing, rats learned to associate the location of the submerged platform (and their only means to escape the water) with the visual cues. […] The number of crossings of the previous platform location and the time spent by the rat in each quadrant were recorded. Animals that had learned the location of the platform spent more time in the appropriate quadrant and repeatedly crossed that quadrant. By performing the probe test, false positives could be excluded from the analysis (i.e., rats that had previously located the platform via a strategy independent of the visual cues, such as swimming randomly until a leg hit the platform). No animals were excluded based on conflicting data between the three days of testing and the probe test. […] The following statistical tests were performed on the data: […] A two-way repeated-measures ANOVA, followed by a Bonferroni post-hoc test, was used to compare the mean escape latency for each of the three successive test days, with p<0.05 indicating a statistically significant difference. […] Pat. […] Pat. […] Donepezil hydrochloride was purchased from Changzhou Dahua Imp. and Exp. Corp. Ltd. […] Louis, Mo.) or Spectrum Chemical Mfg. Corp. (Gardena, Calif.). GR125487 sulfamate was purchased from Tocris (Ellisville, Mo.). […] Doses were expressed with respect to the free base weights of each compound.

human 5-HT4(d) receptor = human 5-HT4(d) receptor (Homo sapiens, UniProt Q13639); test: cell-based
Sequence of human 5-HT4(d) receptor (Q13639 1-360 isoform Q13639-3): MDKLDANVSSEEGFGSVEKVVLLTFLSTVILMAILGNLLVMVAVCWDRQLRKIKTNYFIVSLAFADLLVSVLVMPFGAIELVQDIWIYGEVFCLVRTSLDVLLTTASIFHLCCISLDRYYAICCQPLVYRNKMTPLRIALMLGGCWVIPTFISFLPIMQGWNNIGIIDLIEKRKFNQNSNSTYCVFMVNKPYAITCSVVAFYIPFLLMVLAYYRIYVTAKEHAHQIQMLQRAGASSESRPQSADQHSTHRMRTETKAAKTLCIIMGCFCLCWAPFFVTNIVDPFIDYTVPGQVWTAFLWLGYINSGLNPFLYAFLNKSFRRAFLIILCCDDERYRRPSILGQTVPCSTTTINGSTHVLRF
Protocol: HEK-293 (human embryonic kidney) cells stably-transfected with human 5-HT4(d) receptor cDNA and human APP695 cDNA (HEK293-5-HT4(d)-APP695) were grown in Dulbecco's Modified Eagles Medium (DMEM) containing D-glucose supplemented with 10% fetal bovine serum, 2 mM GlutaMax-1, and 100 units penicillin (100 μg), and 100 μg/mL streptomycin in a 5% CO2, humidified incubator at 37° C. Cells were grown under continuous selection pressure by the addition of G418 (500 ug/mL) antibiotic.
HEK293-5-HT4(d)-APP695 cells (3×10^5 cells/well) were serum-starved for 4 hr prior to incubation with agonists for 30 min (unless otherwise stated) at 37° C. The culture medium was aspirated, centrifuged to remove cellular debris and the level of sAPPα determined by Western blot. sAPPα was detected using antibody 6E10 (Signet/Covance) and a goat anti-mouse HRP-conjugated 2° antibody. Immunoreactive bands corresponding to sAPPα were visualized and quantified with ECL substrate (Pierce) and a Fluor Chem HD2 image system (Alpha Innotech). Western blot analysis of samples was conducted in duplicate.
Potency data are reported as pEC50 values, the negative decadic logarithm of the EC50 value, where EC50 is the effective concentration for a 50% maximal response. […] To determine EC50 values, data from independent experiments were fit simultaneously to a sigmoidal concentration response curve using Graph Pad Prism software (slope constrained to unity).

[2] = 0.01 mg/kg plus scopolamine 0.5 mg/kg
[3] = 0.1 mg/kg plus scopolamine 0.5 mg/kg
[4] = 1 mg/kg plus scopolamine 0.5 mg/kg

In the case of `CC(C)n1c(=O)c(C(=O)N[C@H]2C[C@H]3CC[C@@H](C2)N3C[C@@H](O)CN(C)S(C)(=O)=O)cc2ccccc21` [Compound 1, 1-isopropyl-2-oxo-1,2-dihydroquinoline-3-carboxylic acid {(1S,3R,5R)-8-[(R)-2-hydroxy-3-(methanesulfonyl-methyl-amino)propyl]-8-azabicyclo[3.2.1]oct-3-yl}amide], the “effect on scopolamine-induced cognitive decline when administered alone” value [1, 2] is reported as “Neither compound 1 at a dose of 0.01 mg/kg nor donepezil at a dose of 0.1 mg/kg were found to have a significant effect”, the “effect on scopolamine-induced memory impairment” value [1] is reported as “attenuated the memory impairment” and the “effect on scopolamine-induced memory impairment, mean escape latency day 3” value (“effect … mean escape latency day 3” for short) [1, 3] is reported as “achieved statistical significance”. For the same molecule, the “effect on ability of rats to learn platform location when administered alone” value (“effect on ability of rats” for short) ([1]; 1 mg/kg i.p.) was “had no effect”, the “effect … mean escape latency day 3” value [1, 4] was “attenuated the memory impairment” and the “effect … mean escape latency day 3” value ([1]; 1 mg/kg plus scopolamine 0.5 mg/kg, listed as compound 1) was “had no effect”. For the same molecule, the “reversal of scopolamine-induced cognitive impairment with coadministered 5-HT4 antagonist” value [1] was “abolished”.
For `COC(=O)N1CCC(CN2CCC(CNC(=O)c3cccc4[nH]c(C(C)C)nc34)CC2)CC1` [Compound 2, 4-(4-{[(2-isopropyl-1H-benzoimidazole-4-carbonyl)amino]methyl}-piperidin-1-ylmethyl)piperidine-1-carboxylic acid methyl ester], the “effect on scopolamine-induced cognitive decline when administered alone” value [1, 2] was “Neither compound 2 at a dose of 0.01 mg/kg nor donepezil at a dose of 0.1 mg/kg were found to have a significant effect”, the “effect on scopolamine-induced memory impairment” value [1] was “attenuated the memory impairment” and the “effect … mean escape latency day 3” value [1, 3] was “achieved statistical significance”. The “effect on ability of rats” value ([1]; 1 mg/kg i.p.) was “had no effect”, the “effect … mean escape latency day 3” value [1, 4] was “had no effect” and the “reversal of scopolamine-induced cognitive impairment with coadministered 5-HT4 antagonist” value [1] was “abolished”. The “effect of antagonist GR113808 on compound-evoked sAPPα release” value (human 5-HT4(d) receptor; 10 min 1 μM GR113808 before compound at 100 nM) was “completely blocked”, the “sAPPα release, concentration dependence” value (human 5-HT4(d) receptor; HEK293 cells with human 5-HT4(d) receptors and human APP695) was “concentration-dependent increase” and the Emax (human 5-HT4(d) receptor; read-out: Emax (% response relative to 1 μM 5-HT)) was 103%.
`COc1[nH]c2ccc(F)cc2c1C(=O)OCC1CCN(CCNS(C)(=O)=O)CC1` [GR125487, reference compound] was tested, and the “effect in Morris water maze when administered alone” value ([1]; GR125487 1 mg/kg i.p. alone) was “had no effect”.
`CN1[C@@H]2C[C@@H](OC(=O)[C@H](CO)c3ccccc3)C[C@H]1[C@@H]1O[C@@H]12` [Scopolamine, scopolamine hydrochloride, reference compound] was tested, and the “attenuation of learning versus vehicle” value ([1]; 0.5 mg/kg i.p., p<0.025) was “statistically significant attenuation of learning”.
`COc1cc2c(cc1OC)C(=O)C(CC1CCN(Cc3ccccc3)CC1)C2` (stereo not shown) [donepezil, donepezil hydrochloride, reference compound] was tested, and the “effect on scopolamine-induced cognitive decline when administered alone” value ([1]; 0.1 mg/kg plus scopolamine 0.5 mg/kg, hydrochloride) was “Neither compound 1 at a dose of 0.01 mg/kg nor donepezil at a dose of 0.1 mg/kg were found to have a significant effect; also recorded: Neither compound 2 at a dose of 0.01 mg/kg nor donepezil at a dose of 0.1 mg/kg were found to have a significant effect”, the “reversal of scopolamine-induced cognitive deficit, mean escape latency day 3” value ([1]; 3 mg/kg i.p. plus scopolamine 0.5 mg/kg) was “statistically significant reversal” and the “effect on ability of rats” value ([1]; 3 mg/kg i.p.) was “had no effect”. The “reversal of scopolamine-induced cognitive deficit, mean escape latency day 3” value ([1]; 0.3-3 mg/kg i.p. plus scopolamine 0.5 mg/kg i.p.) was “dose-dependent manner”.
